Laboratory results as given in patent US8828997B2, “2,3-dihydro-1H-imidazo(1,2-a)pyrimidin-5-one derivatives, preparation thereof, and pharmaceutical use thereof” (Sanofi, priority 2009, dated 2014).
pIC50: −log10 of the molar value.

Key:
Format in all cases: cell-based
[1] = test system: AKT protein phosphorylated on serine 473 (P-AKT-S473) in PC3 human prostate carcinoma cells; assay: pAKT expression in PC3 human prostate carcinoma cells measured by MSD Multi-spot Biomarker detection (test B); conditions: MSD sandwich immunoassay, 1 to 2 h incubation, absolute IC50
Procedure: The inhibitory activity of the molecules on AKT phosphorylation is measured either by western blotting using the technique described below, or by the MSD Multi-spot Biomarker detection technique from Meso Scale Discovery also described below.
Study of pAKT Expression in PC3 Human Prostate Carcinoma Cells Measured by the MSD Multi-Spot Biomarker Detection Technique from Meso Scale Discovery (Test B):
This test is based on measuring the expression of the AKT protein phosphorylated on serine 473 (P-AKT-S473), in the PC3 human prostate carcinoma line, by means of the technique based on a sandwich immunoassay using the MSD Multi-spot Biomarker Detection kit from Meso Scale Discovery: phospho-Akt (Ser473) whole cell lysate kit (#K151CAD) or phospho-Akt (Ser473)/Total Akt whole cell lysate kit (#K151OOD). The primary antibody specific for P-AKT-S473 (Kit #K151CAD) is coated onto an electrode in each well of the 96-well plates of the MSD kit: after the addition of a protein lysate to each well, the signal is visualised by adding a secondary detection antibody labelled with an electrochemoluminescent compound. The procedure followed is that described in the kit.
(§1) On day 1, the PC3 cells are seeded into 96-well plates (TPP, #92096) at the concentration of 35 000 cells/well in 200 μl of DMEM medium (DMEM Gibco #11960-044) containing 10% of foetal calf serum (FCS Gibco, #10500-056) and 1% glutamine (L-Glu Gibco #25030-024), and incubated at 37° C., 5% CO2, overnight.
On day 2, the cells are incubated in the presence or absence of the test products for 1 to 2 h at 37° C. in the presence of 5% of CO2. The molecules, diluted in dimethyl sulphoxide (DMSO Sigma #D2650), are added from a 20-times concentrated stock solution, the final percentage of DMSO being 0.1%. The molecules are tested either at a single concentration of less than or equal to 10 μM, or at increasing concentrations in a range that can extend from less than 1 nM to 10 μM.
After this incubation, the cells are lysed for the preparation of the proteins. For this, after the culture medium has been drawn off, 50 μl of complete Tris Lysis Buffer of the MSD kit containing the protease and phosphatase inhibitor solutions are added to the wells and the cells are lysed for 1 h at 4° C. with shaking. At this stage, the plates containing the lysates can be stored at −20° C. or at −80° C.
The wells of the 96-well plates of the MSD kit are saturated for 1 h at ambient temperature with the blocking solution of the MSD kit. Four washes are carried out with 150 μl of Tris Wash Buffer of the MSD kit. The lysates previously prepared are transferred into the 96-well multi-spot plates of the MSD kit and incubated for 1 h at ambient temperature, with shaking. Four washes are carried out with 150 μl of Tris Wash Buffer of the MSD kit. 25 μl of the MSD sulfo-tag detection antibody solution are added to the wells and incubated for 1 h at ambient temperature, with shaking. Four washes are carried out with 150 μl of Tris Wash Buffer of the MSD kit. 150 μl of Read Buffer of the MSD kit are added to the wells and the plates are read immediately on the S12400 instrument from Meso Scale Discovery.
The instrument measures a signal for each well. Wells without cells and containing the lysis buffer serve to determine the background noise that will be subtracted from all the measurements (min). The wells containing cells in the absence of product and in the presence of 0.1% DMSO are considered to be the 100% signal (max). The percentage inhibition is calculated for each concentration of test product according to the following formula: (1-((test−min)/(max−min)))×100.
The activity of the product is translated to IC50, obtained from a dose-response curve of the various concentrations tested and representing the dose giving 50% specific inhibition (absolute IC50). 2 independent experiments make it possible to calculate the mean of the IC50 values.

[2] = test system: translocation of the LC3 protein in Hela GFP-LC3 cells; assay: Translocation of the LC3 protein in Hela human cells measured by image analysis cytometry (test C, autophagy); conditions: EBSS + 10 μM hydroxychloroquine, cells with LC3 granulations, absolute IC50
Procedure: Inhibitory activity of the molecules on autophagy is measured by means of the translocation of the LC3 protein from the cytoplasm to the autophagosomes. For this, Hela cells were transfected with a vector encoding the chimeric protein GFP-LC3. A Hela clone stably expressing the GFP-LC3 protein was selected.
Study of the Translocation of the LC3 Protein in Hela Human Cells, Measured by Image Analysis Cytometry (Test C):
as §1, with “Hela GFP-LC3” for “PC3”, “coated with poly-D-lysine (Greiner, #655946)” for “(TPP, #92096)”, “15000” for “35 000”
On day 2, the cells are washed twice with EBSS (Sigma #E3024). The cells are then incubated in EBSS, 10 μM hydroxychloroquine and test products, for 2 hours at 37° C. in the presence of 5% CO2. The molecules are diluted in dimethyl sulphoxide (DMSO Sigma #D2650), the final DMSO percentage being 0.1%. The molecules are tested at increasing concentrations in a range that can extend from 10 nM to 1 μM.
After this incubation, the cells are fixed with 4% paraformaldehyde (Sigma #HT501128 4L) for 10 min. The cells are then washed twice with PBS and the nuclei then stained with 2 μg/ml of Hoechst 33342 (Invitrogen #H3570). The 96-well plates are then read with the iCyte image analysis cytometer (Compucyte).
The activity of the product is translated to IC50, obtained from a dose-response curve of various concentrations tested and representing the dose giving 50% specific inhibition (absolute IC50). 2 independent experiments make it possible to calculate the mean of the IC50 values.

[3] = test system: P. falciparum (highly chloroquine-resistant strain Fcm29-Cameroon); assay: Antimalarial activity test (radioactive micromethod of Desjardins, tritiated hypoxanthine incorporation); conditions: Plasmodium falciparum, Erythrocyte, infected human erythrocytes, 48 h
Procedure: Antimalarial Activity Test
The antimalarial activity tests are carried out according to the radioactive micromethod of Desjardins (R. E. Desjardins, C. J. Canfield, J. D. Haynes, J. D. Chulay, Antimicrob. Agents Chemother., 1979, 16, 710-718). The assays are carried out in 96-well microplates (Test Plates Ref. 92696, Techno Plastic Products Ag, Zollstrasse 155, CH-8219 Trasadingen). The P. falciparum strains are cultured in solutions of RPMI 1640 supplemented with 5% of human serum with a haematocrit at 2% and a blood parasite concentration at 1.5%. For each assay, the parasites are incubated with selected concentrations of drugs for 48 h at 37° C. in a humid atmosphere and at 5% CO2. Artemisinin, artesunate and also chloroquine diphosphate are used as reference molecules. The first dilution of the drug is prepared at 1 mg/ml in dimethyl sulphoxide. The range of dilutions of the successive daughter solutions is also prepared in dimethyl sulphoxide. Each daughter dilution is subsequently diluted to 1/50 in RPMI 1640 supplemented with 5% of human serum, all the dilutions being carried out at 37° C. These dilutions are then added to the parasites in culture in the microplates. After addition of the drug, the parasites are in culture in RPMI 1640 containing 5% of human serum and 1% of dimethyl sulphoxide. The parasite growth is measured by incorporation of tritiated hypoxanthine (added 24 h after the beginning of the exposure to the drug) compared with the incorporation in the absence of drug.
The activity of the product is translated to % inhibition of the growth of P. falciparum (highly chloroquine-resistant strain Fcm29-Cameroon) at 1 μM and 0.1 μM in an in vitro test using infected human erythrocytes.

pIC50 ([2]; Homo sapiens, HeLa, 2 h) | SMILES | inhibition at 1 µM [3] [%] | further results
6.00 | CC(c1ccccc1F)N1c2nc(N3CCOCC3)cc(=O)n2C[C@@]1(C)C(F)(F)F (single isomer, unassigned) [Example 36, (2S)-1-[(1R or 1S)-1-(2-Fluorophenyl)ethyl]-2-methyl-7-(morpholin-4-yl)-2-(trifluoromethyl)-2,3-dihydroimidazo[1,2-a]pyrimidin-5(1H)-one] | – | pIC50 ([1]; P-AKT-S473, PC3 cells): 8.40
– | COc1ccccc1[C@H](O)CN1c2nc(N3CCOCC3)cc(=O)n2C[C@@]1(C)C(F)(F)F [Example 40, (S)-1-[(S)-2-hydroxy-2-(2-methoxyphenyl)ethyl]-2-methyl-7-morpholin-4-yl-2-trifluoromethyl-2,3-dihydro-1H-imidazo[1,2-a]pyrimidin-5-one] | 80 | inhibition at 0.1 µM [3]: 20%
– | CC(c1ccccc1)N1c2nc(N3CCOCC3)cc(=O)n2C[C@@]1(C)C(F)(F)F (single isomer, unassigned) [Example 31, (2S)-2-Methyl-7-(morpholin-4-yl)-1-[(1R or 1S)-1-phenylethyl]-2-(trifluoromethyl)-2,3-dihydroimidazo[1,2-a]pyrimidin-5(1H)-one] | – | pIC50 ([1]; P-AKT-S473, PC3 cells): 7.22; pIC50 ([2]; 2 hours): 6.48
7.15 | C[C@@]1(C(F)(F)F)Cn2c(nc(N3CCOCC3)cc2=O)N1CCSc1ccccc1 [Example 7, (S)-2-Methyl-7-morpholin-4-yl-1-(2-phenylsulfanylethyl)-2-trifluoromethyl-2,3-dihydro-1H-imidazo[1,2-a]pyrimidin-5-one] | – | –
7.41 | COc1ccc(CCN2c3nc(N4CCOCC4)c(F)c(=O)n3C[C@@]2(C)C(F)(F)F)cc1 [Example 18, (2S)-6-Fluoro-1-[2-(4-methoxyphenyl)ethyl]-2-methyl-7-(morpholin-4-yl)-2-(trifluoromethyl)-2,3-dihydroimidazo[1,2-a]pyrimidin-5(1H)-one] | – | –
6.72 | C[C@H](CN1c2nc(N3CCOCC3)cc(=O)n2C[C@@]1(C)C(F)(F)F)c1ccccc1 [Example 9, (S)-2-Methyl-7-morpholin-4-yl-1-((S)-2-phenylpropyl)-2-trifluoromethyl-2,3-dihydro-1H-imidazo[1,2-a]pyrimidin-5-one] | – | –
6.63 | C[C@@]1(C(F)(F)F)Cn2c(nc(N3CCOCC3)cc2=O)N1C[C@H](O)c1ccccc1 [Example 11] | 13 | –
6.46 | COc1ccc(CCN2c3nc(N4CCOCC4)cc(=O)n3CC2(C)C)cc1 [Example 17, 1-[2-(4-Methoxyphenyl)ethyl]-2,2-dimethyl-7-morpholin-4-yl-2,3-dihydro-1H-imidazo[1,2-a]pyrimidin-5-one] | – | –
– | COc1ccc([C@H](O)CN2c3nc(N4CCOCC4)cc(=O)n3C[C@@]2(C)C(F)(F)F)c(Cl)c1 [Example 43, (S)-1-[(S)-2-(2-chloro-4-methoxyphenyl)-2-hydroxyethyl]-2-methyl-7-morpholin-4-yl-2-trifluoromethyl-2,3-dihydro-1H-imidazo[1,2-a]pyrimidin-5-one] | 74 | inhibition at 0.1 µM [3]: 22%
– | COc1cc(Cl)ccc1[C@H](O)CN1c2nc(N3CCOCC3)cc(=O)n2C[C@@]1(C)C(F)(F)F [Example 41, (S)-1-[(S)-2-(4-chloro-2-methoxyphenyl)-2-hydroxyethyl]-2-methyl-7-morpholin-4-yl-2-trifluoromethyl-2,3-dihydro-1H-imidazo[1,2-a]pyrimidin-5-one] | 78 | –
– | COc1cc(F)c(C(O)CN2c3nc(N4CCOCC4)cc(=O)n3C[C@@]2(C)C(F)(F)F)cc1OC (stereo partly drawn) [Example 39, (S)-1-[2-(2-fluoro-4,5-dimethoxyphenyl)-2-hydroxyethyl]-2-methyl-7-morpholin-4-yl-2-trifluoromethyl-2,3-dihydro-1H-imidazo[1,2-a]pyrimidin-5-one] | 85 | inhibition at 0.1 µM [3]: 39%
– | COc1cc(F)ccc1[C@H](O)CN1c2nc(N3CCOCC3)cc(=O)n2C[C@@]1(C)C(F)(F)F [Example 42, (S)-1-[(S)-2-(4-fluoro-2-methoxyphenyl)-2-hydroxyethyl]-2-methyl-7-morpholin-4-yl-2-trifluoromethyl-2,3-dihydro-1H-imidazo[1,2-a]pyrimidin-5-one] | 78 | –
– | C[C@@]1(C(F)(F)F)Cn2c(nc(N3CCOCC3)cc2=O)N1C(=O)c1ccccc1Cl [Example 34, (2S)-1-[(2-chlorophenyl)carbonyl]-2-methyl-7-(morpholin-4-yl)-2-(trifluoromethyl)-2,3-dihydroimidazo[1,2-a]pyrimidin-5(1H)-one] | – | pIC50 ([1]; Homo sapiens, PC-3, P-AKT-S473, PC3 cells): 6.80
6.09 | CCC(c1ccccc1)N1c2nc(N3CCOCC3)cc(=O)n2C[C@@]1(C)C(F)(F)F (single isomer, unassigned) [Example 13, (S)-2-Methyl-7-morpholin-4-yl-1-((R) or (S)-1-phenylpropyl)-2-trifluoromethyl-2,3-dihydro-1H-imidazo[1,2-a]pyrimidin-5-one] | – | –
